Values quoted from earlier work as cited in publication PMC9598925, “Synthetic Amphipathic β-Sheet Temporin-Derived Peptide with Dual Antibacterial and Anti-Inflammatory Activities” (Antibiotics, 2022).
Like-named read-outs stand apart in the source and are kept apart here.

Legend:
[1] = range of concentrations 1 μM–200 μM; cited from earlier work
Description: The impact of Nle on the aggregation propensity was studied in solution and in presence of large unilamellar vesicles (LUVs) mimicking Gram-positive and Gram-negative membranes. The aggregation in aqueous solution was monitored using Nile Red (NR) as a fluorescent probe. […] The introduction of the Nle residue conferred to peptide [Nle^1, DLeu^9, DLys^10]TL a low propensity to aggregate in aqueous solution as shown ...

[2] = test system: zymosan-induced peritonitis; conditions: cited from earlier work
[3] = LUVs mimicking Gram-positive and Gram-negative membranes; cited from earlier work
Description: The molecular conformation of [Nle^1, DLeu^9, DLys^10]TL was investigated by circular dichroism (CD) spectroscopy both in LUVs made of DOPG/CL and DOPG/DOPE/CL (Figure 3, panel A). […] In contrast, the introduction of Nle induced changes in molecular conformation, determining the formation of β-aggregates.

HaCaT cells = conditions: highest concentration of 25 μM; previous work of the authors; cited from earlier work
A. baumannii ATCC 19606 = conditions: lead peptide, previous works ref 27, 41; cited from earlier work
Description: (§1) Table 2 MICs values of peptide [Nle^1, DLeu^9, DLys^10]TL in comparison with [DLeu^9, DLys^10]TL on selected Gram-positive and Gram-negative strains. | column: MIC Values (μM) / [DLeu^9, DLys^10]TL *

S. aureus ATCC 25923 = conditions: lead peptide, previous works ref 27, 41; cited from earlier work
Description: as §1

P. aeruginosa ATCC 27853 = conditions: lead peptide, previous works ref 27, 41; cited from earlier work
Description: as §1

B. megaterium Bm11 = conditions: lead peptide, previous works ref 27, 41; cited from earlier work
Description: as §1

E. coli ATCC 25922 = conditions: lead peptide, previous works ref 27, 41; cited from earlier work
Description: as §1

[4] = test system: S. epidermidis ATCC 12228; conditions: lead peptide, previous works ref 27, 41; cited from earlier work
Description: as §1

[5] = test system: K. pneumoniae ATCC BAA-1705; conditions: lead peptide, previous works ref 27, 41; cited from earlier work
Description: as §1

[6] = LUVs DOPG/CL, cited from earlier work
Experimental: LUVs composed of DOPG/CL (58/42 ratio in moles) and DOPG/DOPE/CL ([…] ratio in moles) were used to mimic Gram-positive and Gram-negative cell membranes, respectively. LUVs were titrated with different peptide concentrations of 5, 10, 15, […], 30, and 50 μM. […] In contrast, the peptide [DLeu^9, DLys^10]TL progressively oligomerized in LUVs (DOPG/CL) as described in Bellavita et al.; in fact, it was partially aggr ...

[7] = test system: J774A.1 murine macrophage cells; conditions: highest concentration of 25 μM; previous work of the authors; cited from earlier work
[8] = 10 μM peptide; LUVs DOPG/CL, ANTS/DPX; cited from earlier work
Experimental: In this study, we evaluated the membranolytic activity of analogue [Nle^1, DLeu^9, DLys^10]TL in presence of LUVs mimicking Gram-positive and Gram-negative membranes by using ANTS/DPX leakage assay. […] Indeed, after the treatment with 10 μM of [Nle^1, DLeu^9, DLys^10]TL, we observed ~60% of LUVs leakage in com ...

FVPWFSKFlkRIL [[DLeu^9, DLys^10]TL]
aggregation in solution [1]: unable to aggregate in solution
anti-inflammatory activity in vivo [2]: significant anti-inflammatory activity
level of pro-inflammatory cytokines IL-6, MCP-1 and TNF-α [2]: reduced the level of pro-inflammatory cytokines
molecular conformation (CD) [3]: helical aggregates
cytotoxicity on human keratinocytes (HaCaT cells): not cytotoxic
MIC (A. baumannii ATCC 19606): 6.25 µM
MIC (S. aureus ATCC 25923): 6.25 µM
MIC (P. aeruginosa ATCC 27853): 12.5 µM
MIC (B. megaterium Bm11): 3.12 µM
MIC (E. coli ATCC 25922): 12.5 µM
MIC [4]: 3.12 µM
MIC [5]: 12.5 µM
aggregation (ThT) ([6]; 20 μM peptide): ~ 56%
aggregation (ThT) ([6]; 50 μM peptide): completely aggregated
cytotoxicity on murine macrophages [7]: not cytotoxic
LUVs leakage [8]: ~ 23%
